Source: patent EP2057188B1 (priority 2006, dated 2008)
Read-outs that look alike come from different tables or passages of the source. Ends that are not written are not given here.

Key:
[1] = IVGTT duration of action assay, single SC injection; type: in vivo, rat; details: compared with 0601GIP3794 (794); @ -120 min
Experimental: In the typical IVGTT assays the test sample was administered by IV infusion. The IV infusion of sample was initiated at t = -30min and continued through t = 90. IV glucose was given at t = 0. To determine a duration of action using the IVGTT assay, the sample was injected SC as a single injection at one time point indicated (e.g., t = -240, -120, -60 or -30) prior to administration of glucose. IV glucose was given at t = 0.

[2] = type: in vivo, NIH/Swiss mice; details: 80 nmol/Kg; AUC240
Experimental: Gavage (1.5g/kg) was given at t=0. Sample was taken at t=30 min.

[3] = cited from earlier work; for EC(50): inhibition of gastric emptying, subcutaneous; for inhibition of gastric emptying: at doses of 100µg
[4] = type: in vivo, rats; parameters: AUC Change in Insulin Pre IVGTT / AUC Change in Insulin Post IVGTT: unit not given beside the values; details: for AUC Change in Insulin Post IVGTT / AUC Change in Insulin Pre IVGTT: rat, in vivo
[5] = 100 pmol/kg/min infusion dose in rats

| Compound | Duration In The Rat IVGTT Assay [1] | Basal Glucose Lowering at 80 nmol/Kg [2] | inhibition of gastric emptying [3] | also measured |
| --- | --- | --- | --- | --- |
| CC[C@H](C)[C@H](NC(=O)[C@H](CCCCN)NC(=O)[C@H](CC(=O)O)NC(=O)[C@H](CC(C)C)NC(=O)[C@H](C)NC(=O)[C@@H](NC(=O)[C@H](CO)NC(=O)[C@H](Cc1ccc(O)cc1)NC(=O)[C@H](CC(=O)O)NC(=O)[C@H](CO)NC(=O)[C@@H](NC(=O)[C@H](Cc1ccccc1)NC(=O)[C@@H](NC(=O)CNC(=O)[C@H](CCC(=O)O)NC(=O)[C@@H](C)NC(=O)[C@H](Cc1ccc(O)cc1)NC(=O)[C@@H](N)CC(C)C)[C@@H](C)O)[C@@H](C)CC)[C@@H](C)CC)C(=O)N[C@@H](C)C(=O)N[C@@H](CCC(N)=O)C(=O)N[C@@H](CCC(N)=O)C(=O)N[C@@H](CCC(=O)O)C(=O)N[C@@H](Cc1ccccc1)C(=O)N[C@H](C(=O)N[C@@H](CC(N)=O)C(=O)N[C@@H](Cc1c[nH]c2ccccc12)C(=O)N[C@@H](CC(C)C)C(=O)N[C@@H](CC(C)C)C(=O)N[C@@H](C)C(=O)N[C@@H](CCC(N)=O)C(=O)N[C@@H](CCCCN)C(=O)N1CCC[C@H]1C(=O)N[C@@H](CCCCN)C(=O)N[C@@H](CCCCN)C(=O)N[C@H](C(=O)N[C@@H](CCCNC(=N)N)C(=O)N[C@@H](Cc1ccc(O)cc1)C(=O)N[C@@H](CO)C(N)=O)[C@@H](C)CC)C(C)C [0601 GIP48 02] | < 794 @ -120 min | -15%, AUC240 |  |  |
| CC[C@H](C)[C@H](NC(=O)[C@H](CO)NC(=O)[C@H](Cc1ccc(O)cc1)NC(=O)[C@H](CC(=O)O)NC(=O)[C@H](CO)NC(=O)[C@@H](NC(=O)[C@H](Cc1ccccc1)NC(=O)[C@@H](NC(=O)CNC(=O)[C@H](CCC(=O)O)NC(=O)[C@@H](C)NC(=O)[C@@H](N)Cc1ccc(O)cc1)[C@@H](C)O)[C@@H](C)CC)C(=O)N[C@@H](C)C(=O)N[C@@H](CC(C)C)C(=O)N[C@@H](CC(=O)O)C(=O)N[C@@H](CCCCN)C(=O)N[C@H](C(=O)N[C@@H](Cc1c[nH]cn1)C(=O)N[C@@H](CCC(N)=O)C(=O)N[C@@H](CCC(N)=O)C(=O)N[C@@H](CC(=O)O)C(=O)N[C@@H](Cc1ccccc1)C(=O)N[C@H](C(=O)N[C@@H](CC(N)=O)C(=O)N[C@@H](Cc1c[nH]c2ccccc12)C(=O)N[C@@H](CC(C)C)C(=O)N[C@@H](CC(C)C)C(=O)N[C@@H](C)C(=O)N[C@@H](CCC(N)=O)C(=O)N[C@@H](CCCCN)C(=O)N1CCC[C@H]1C(=O)N[C@@H](CCCCN)C(=O)N[C@@H](CCCCN)C(=O)N[C@H](C(=O)N[C@@H](CCCNC(=N)N)C(=O)N[C@@H](Cc1ccc(O)cc1)C(=O)N[C@@H](CO)C(N)=O)[C@@H](C)CC)C(C)C)[C@@H](C)CC [0601 GIP48 07] | < 794 @-120 min | -26%, AUC240 |  |  |
| CC[C@H](C)[C@H](NC(=O)[C@H](CO)NC(=O)[C@H](Cc1ccc(O)cc1)NC(=O)[C@H](CC(=O)O)NC(=O)[C@H](CO)NC(=O)[C@@H](NC(=O)[C@H](Cc1ccccc1)NC(=O)[C@@H](NC(=O)CNC(=O)[C@H](CCC(=O)O)NC(=O)[C@@H](C)NC(=O)[C@@H](N)Cc1ccc(O)cc1)[C@@H](C)O)[C@@H](C)CC)C(=O)N[C@@H](C)C(=O)N[C@@H](CCSC)C(=O)N[C@@H](CC(=O)O)C(=O)N[C@@H](CCCCN)C(=O)N[C@H](C(=O)N[C@@H](Cc1c[nH]cn1)C(=O)N[C@@H](CCC(N)=O)C(=O)N[C@@H](CCC(N)=O)C(=O)N[C@@H](CC(=O)O)C(=O)N[C@@H](Cc1ccccc1)C(=O)N[C@H](C(=O)N[C@@H](CC(N)=O)C(=O)N[C@@H](Cc1c[nH]c2ccccc12)C(=O)N[C@@H](CC(C)C)C(=O)N[C@@H](CC(C)C)C(=O)N[C@@H](C)C(=O)N[C@@H](CCC(N)=O)C(=O)N[C@@H](CCCCN)C(=O)N1CCC[C@H]1C(=O)N[C@@H](C)C(=O)N[C@@H](CCCCN)C(=O)N[C@H](C(=O)N[C@@H](CCCNC(=N)N)C(=O)N[C@@H](Cc1ccc(O)cc1)C(=O)N[C@@H](CO)C(N)=O)[C@@H](C)CC)C(C)C)[C@@H](C)CC [0601 GIP48 15] | < 794@ -120 min | -14%, AUC240 |  |  |
| CC[C@H](C)[C@H](NC(=O)[C@H](C)NC(=O)[C@H](CCCCN)NC(=O)[C@@H]1CCCN1C(=O)[C@H](CCCCN)NC(=O)[C@H](CCC(N)=O)NC(=O)[C@H](C)NC(=O)[C@H](CC(C)C)NC(=O)[C@H](CC(C)C)NC(=O)[C@H](Cc1c[nH]c2ccccc12)NC(=O)[C@H](CC(N)=O)NC(=O)[C@@H](NC(=O)[C@H](Cc1ccccc1)NC(=O)[C@H](CC(=O)O)NC(=O)[C@H](CCC(N)=O)NC(=O)[C@H](CCC(N)=O)NC(=O)[C@H](Cc1c[nH]cn1)NC(=O)[C@@H](NC(=O)[C@H](CCCCN)NC(=O)[C@H](CC(=O)O)NC(=O)[C@H](CCSC)NC(=O)[C@H](C)NC(=O)[C@@H](NC(=O)[C@H](CO)NC(=O)[C@H](Cc1ccc(O)cc1)NC(=O)[C@H](CC(=O)O)NC(=O)[C@H](CO)NC(=O)[C@@H](NC(=O)[C@H](Cc1ccccc1)NC(=O)[C@@H](NC(=O)CNC(=O)[C@H](CCC(=O)O)NC(=O)[C@@H](C)NC(=O)[C@@H](N)Cc1ccc(O)cc1)[C@@H](C)O)[C@@H](C)CC)[C@@H](C)CC)[C@@H](C)CC)C(C)C)C(=O)N[C@@H](CCCNC(=N)N)C(=O)N[C@@H](Cc1ccc(O)cc1)C(=O)N[C@@H](CO)C(N)=O [0601 GIP48 16] | <794@-120 min | -9%, AUC240 |  |  |
| CC[C@H](C)[C@H](NC(=O)[C@H](CO)NC(=O)[C@H](Cc1ccc(O)cc1)NC(=O)[C@H](CC(=O)O)NC(=O)[C@H](CO)NC(=O)[C@@H](NC(=O)[C@H](Cc1ccccc1)NC(=O)[C@@H](NC(=O)CNC(=O)[C@H](CCC(=O)O)NC(=O)[C@@H](C)NC(=O)[C@@H](N)Cc1ccc(O)cc1)[C@@H](C)O)[C@@H](C)CC)C(=O)N[C@@H](C)C(=O)N[C@@H](CCSC)C(=O)N[C@@H](CC(=O)O)C(=O)N[C@@H](CCCCN)C(=O)N[C@H](C(=O)N[C@@H](Cc1c[nH]cn1)C(=O)N[C@@H](CCC(N)=O)C(=O)N[C@@H](CCC(N)=O)C(=O)N[C@@H](CC(=O)O)C(=O)N[C@@H](Cc1ccccc1)C(=O)N[C@H](C(=O)N[C@@H](CC(N)=O)C(=O)N[C@@H](Cc1c[nH]c2ccccc12)C(=O)N[C@@H](CC(C)C)C(=O)N[C@@H](CC(C)C)C(=O)N[C@@H](C)C(=O)N[C@@H](CCC(N)=O)C(=O)N[C@@H](CCCCN)C(=O)N1CCC[C@H]1C(=O)N[C@@H](CCCCN)C(=O)N[C@@H](CCC(N)=O)C(=O)N[C@H](C(=O)N[C@@H](CCCNC(=N)N)C(=O)N[C@@H](Cc1ccc(O)cc1)C(=O)N[C@@H](CO)C(N)=O)[C@@H](C)CC)C(C)C)[C@@H](C)CC [0601 GIP48 54] | < 794@ -120 min |  |  |  |
| Secretin: peptide compared for inhibition of gastric emptying in conscious rats |  |  |  | EC(50) ([3]; conscious rats ~200g): 1.87 µg; EC(50) ([3]; conscious rats): 3.09 nmol/kg |
| [dAla2, Leu14, beta-Ala31, beta-Ala32] GIP-(1-32)-Exendin-4 (31-39) [Compound 0601GIP4179] |  | -17%, AUC240 |  | AUC Change in Insulin Post IVGTT [4]: 206.8+-30.1; AUC Change in Insulin Pre IVGTT [4]: 52.4+-9.6 |
| [dAla2]GIP-(1-30)-[Octylglycine 34] Exendin-4 (31-39) [Compound 0601GIP4252] |  | -7%, AUC240 |  | AUC Change in Insulin Post IVGTT [4]: 1218.1+ -12.7; AUC Change in Insulin Pre IVGTT [4]: 11.9+-11.7 |
| ^25,28,29Pro-h-amylin (KCNTATCATQRLANFLVHSSNNFGPILPPTNVGSNTY; chains of the INN, looked up) [Pramlintide] |  |  |  | EC(50) ([3]; conscious rats ~200g): 0.07 µg |
| adrenomedullin: peptide compared for inhibition of gastric emptying in conscious rats (YRQSMNNFQGLRSFGCRFGTCTVQKLAHQIYQFTDKDKDNVAPRSKISPQGY; ends and bridges not checked; cysteine pairing not given here; UniProt P35318 95-146, looked up) |  |  | weakly active or inactive |  |
| glucagon: peptide compared for inhibition of gastric emptying in conscious rats |  |  | weakly active or inactive |  |
| neuropeptide Y: peptide compared for inhibition of gastric emptying in conscious rats |  |  | weakly active or inactive |  |
| octylglycine-GIP(1-30)-Exendin-4-(31-39) [Compound 0601GIP4178] |  | -13%, AUC240 |  | insulin levels prior to the glucose challenge [4, 5]: significant rise in insulin levels; insulinotropic response to an intravenous glucose challenge [4, 5]: diminished insulinotropic response; AUC Change in Insulin Post IVGTT [4]: 106.6+-23.8; AUC Change in Insulin Pre IVGTT [4]: 18.5+-6.7 |
| pancreatic polypeptide: peptide compared for inhibition of gastric emptying in conscious rats (APLEPVYPGDNATPEQMAQYAADLRRYINMLTRPRY; ends and bridges not checked; UniProt P01298 30-65, looked up) |  |  | weakly active or inactive |  |
| somatostatin: peptide compared for inhibition of gastric emptying in conscious rats (AGCKNFFWKTFTSC; ends and bridges not checked; cysteine pairing not given here; UniProt P61278 103-116, looked up) |  |  | weakly active or inactive |  |
| vasoactive intestinal peptide: peptide compared for inhibition of gastric emptying in conscious rats (HSDAVFTDNYTRLRKQMAVKKYLNSILN; ends and bridges not checked; UniProt P01282 125-152, looked up) |  |  | weakly active or inactive |  |
